Molecules are shown by their SMILES. “Also recorded” adds a separate entry of the source.

For data set [1], the target named is T1, PARP1 (Homo sapiens, UniProt P09874).
T1 construct: purchased BPS Bioscience (San Diego, CA)
Briefly: PARP1 colorimetric activity assay kit (BPS Bioscience). Format: biochemical. The conditions noted are these: for inhibition at 1 µM: read-out: PARP1 % inhibition at 1 µM, 1 µM compound, triplicate (n = 3); for IC50: dose-response, mean (n = 3) ± SD, r^2 in brackets; for PARP1 inhibitory potency in words: compared with 3l. The procedure:
(§1) The thirty-six 1-oxo-3,4-dihydroisoquinoline-4-carboxamides 3a-aj and 1-oxoisoquinoline-4-carboxamide 11 were tested for inhibitory activity towards PARP1 and PARP2 using the commercially available colorimetric activity assay kit from BPS Bioscience (San Diego, CA) in full accordance of the supplier’s method description[13]^,[14]. The initial screening was performed against PARP1 at 1 µM concentration of each compound, in triplicate (n = 3) measurements.

The target in data set [2] is T2, PARP2 (Homo sapiens, UniProt Q9UGN5).
T2 construct: purchased BPS Bioscience (San Diego, CA)
T2 sequence (Q9UGN5 whole entry): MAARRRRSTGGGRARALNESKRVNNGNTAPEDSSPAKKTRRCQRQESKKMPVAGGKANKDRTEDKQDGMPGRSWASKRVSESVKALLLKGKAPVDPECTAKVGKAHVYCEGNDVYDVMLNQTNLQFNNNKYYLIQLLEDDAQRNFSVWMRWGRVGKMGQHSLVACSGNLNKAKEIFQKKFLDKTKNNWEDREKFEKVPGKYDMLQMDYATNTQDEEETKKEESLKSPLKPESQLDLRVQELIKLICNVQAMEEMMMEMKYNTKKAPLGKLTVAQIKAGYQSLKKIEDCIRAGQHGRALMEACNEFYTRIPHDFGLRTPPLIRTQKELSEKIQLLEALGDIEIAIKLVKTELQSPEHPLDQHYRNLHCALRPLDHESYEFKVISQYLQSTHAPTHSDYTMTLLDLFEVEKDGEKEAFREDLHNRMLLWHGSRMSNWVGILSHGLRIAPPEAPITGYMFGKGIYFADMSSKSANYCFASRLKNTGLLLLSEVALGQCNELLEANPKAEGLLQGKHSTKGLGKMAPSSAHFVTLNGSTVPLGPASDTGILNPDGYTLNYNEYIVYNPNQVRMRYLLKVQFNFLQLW
Description: PARP2 colorimetric activity assay kit (BPS Bioscience). The class given is biochemical. The conditions noted are these: for IC50: dose-response, mean (n = 3) ± SD, r^2 in brackets. On the procedure:
as §1

T1 sequence (P09874 whole entry): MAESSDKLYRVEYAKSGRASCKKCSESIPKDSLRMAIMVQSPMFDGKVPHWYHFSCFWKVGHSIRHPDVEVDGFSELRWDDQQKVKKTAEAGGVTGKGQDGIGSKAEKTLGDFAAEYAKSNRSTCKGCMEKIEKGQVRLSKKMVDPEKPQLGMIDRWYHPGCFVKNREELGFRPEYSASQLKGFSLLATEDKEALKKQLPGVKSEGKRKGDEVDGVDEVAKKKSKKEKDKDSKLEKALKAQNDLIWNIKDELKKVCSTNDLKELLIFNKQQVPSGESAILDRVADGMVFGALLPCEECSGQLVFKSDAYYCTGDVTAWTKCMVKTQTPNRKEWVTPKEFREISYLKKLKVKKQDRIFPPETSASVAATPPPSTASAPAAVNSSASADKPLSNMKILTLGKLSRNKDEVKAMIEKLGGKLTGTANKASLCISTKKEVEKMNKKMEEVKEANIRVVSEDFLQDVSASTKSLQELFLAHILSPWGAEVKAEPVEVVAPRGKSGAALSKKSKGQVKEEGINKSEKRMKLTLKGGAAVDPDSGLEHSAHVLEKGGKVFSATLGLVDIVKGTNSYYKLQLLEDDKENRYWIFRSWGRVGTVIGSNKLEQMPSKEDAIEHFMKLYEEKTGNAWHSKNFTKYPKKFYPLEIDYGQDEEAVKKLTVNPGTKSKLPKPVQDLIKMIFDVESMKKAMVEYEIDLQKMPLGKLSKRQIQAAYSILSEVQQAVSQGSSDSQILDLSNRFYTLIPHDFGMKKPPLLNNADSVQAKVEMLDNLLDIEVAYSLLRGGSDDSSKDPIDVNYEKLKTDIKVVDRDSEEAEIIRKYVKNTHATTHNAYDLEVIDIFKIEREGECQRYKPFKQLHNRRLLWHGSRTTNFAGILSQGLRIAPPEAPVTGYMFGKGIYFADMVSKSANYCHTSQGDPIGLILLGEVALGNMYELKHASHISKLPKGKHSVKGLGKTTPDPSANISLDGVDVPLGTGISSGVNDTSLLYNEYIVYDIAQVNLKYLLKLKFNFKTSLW

`CCOC(=O)N1CCN(C(=O)C2CNC(=O)c3ccccc32)CC1` (stereo not drawn) [Compound 3a, Ethyl 4–(1-oxo-1,2,3,4-tetrahydroisoquinoline-4-carbonyl)piperazine-1-carboxylate]: the inhibition – broadly, how much of the control response was suppressed – at 1 µM in data set [1] came to 26.3 ± 7.7%.

In the case of `CC1CCN(C2CCN(C(=O)C3CNC(=O)c4cc(F)ccc43)CC2)CC1` (stereo not drawn) [Compound 3ab, 7-Fluoro-4–(4-methyl-[1,4'-bipiperidine]-1'-carbonyl)-3,4-dihydroisoquinolin-1(2H)-one], the melting point (in general, the temperature of the solid-liquid transition) lay in the range of 171 to 172 °C. For the same compound, in data set [1], inhibition was half-maximal at 82 ± 6.9 nM (IC50) and the inhibition at 1 µM was 93.9 ± 0.2%. Further, in data set [2], the “SI, selectivity index (PARP2 over PARP1)” value is recorded as 2.82 and the midpoint of inhibition, the IC50, lay at 28.8 ± 4.2 nM.

`O=C1NCC(C(=O)N2CCC(N3CCCC3)CC2)c2ccc(F)cc21` (stereo not drawn) [Compound 3ac, 7-Fluoro-4–(4-(pyrrolidin-1-yl)piperidine-1-carbonyl)-3,4-dihydroisoquinolin-1(2H)-one] displayed a melting point of 141 to 142 °C. In addition, in data set [1], half-maximal inhibition (IC50) required 69.5 ± 8.8 nM and the inhibition at 1 µM stood at 95.8 ± 0.7%. In data set [2], the “SI, selectivity index (PARP2 over PARP1)” value was determined as 2.3 and inhibition was half-maximal at 29.6 ± 6.1 nM (IC50).

As to `CCN(CC)C1CCN(C(=O)C2CNC(=O)c3cc(F)ccc32)CC1` (stereo not drawn) [Compound 3ad, 4–(4-(Diethylamino)piperidine-1-carbonyl)-7-fluoro-3,4-dihydroisoquinolin-1(2H)-one], the melting point was in the range of 134 to 135 °C. Besides, in data set [1], the IC50 (commonly the midpoint of a concentration-inhibition curve) worked out at 128 ± 7.1 nM and the inhibition at 1 µM turned out to be 92.6 ± 1.1%. In data set [2], the “SI, selectivity index (PARP2 over PARP1)” value was found to be 3.23 and the IC50 was found to be 40.4 ± 5.8 nM.

Take `O=C1NCC(C(=O)N2CCC(N3CCCCCC3)CC2)c2ccc(F)cc21` (stereo not drawn) [Compound 3ae, 4-(4-(Azepan-1-yl)piperidine-1-carbonyl)-7-fluoro-3,4-dihydroisoquinolin-1(2H)-one]: the melting point lay within 179 to 180 °C. In data set [1], half-maximal inhibition (IC50) was put at 55 ± 9.9 nM and the inhibition at 1 µM was 96.6 ± 0.3%. For the same compound, in data set [2], the “SI, selectivity index (PARP2 over PARP1)” value was determined as 2.61 and the IC50 came to 20.6 ± 2.5 nM.

Turning to `O=C1NCC(C(=O)N2CCC(N3CCC(F)(F)CC3)CC2)c2ccc(F)cc21` (stereo not drawn) [Compound 3ah, 4–(4,4-Difluoro-[1,4'-bipiperidine]-1'-carbonyl)-7-fluoro-3,4-dihydroisoquinolin-1(2H)-one], in data set [1], the IC50 was 371 ± 42 nM and the inhibition at 1 µM amounted to 81.9 ± 1.8%. In data set [2], the “SI, selectivity index (PARP2 over PARP1)” value was found to be 4.46 and the IC50 worked out at 83.1 ± 6.9 nM.

As for `O=C1NCC(C(=O)N2CCC(N3CCC(F)CC3)CC2)c2ccc(F)cc21` (stereo not drawn) [Compound 3ai, 7-Fluoro-4–(4-fluoro-[1,4'-bipiperidine]-1'-carbonyl)-3,4-dihydroisoquinolin-1(2H)-one], in data set [1], the midpoint of inhibition, the IC50, lay at 148 ± 17 nM and the inhibition at 1 µM came to 93.7 ± 0.8%. In addition, in data set [2], the “SI, selectivity index (PARP2 over PARP1)” value is reported as 3.52 and half-maximal inhibition (IC50) required 42 ± 2.3 nM.

Regarding `CC1CCN(C(=O)C2CNC(=O)c3ccccc32)CC1` (stereo not drawn) [Compound 3b, 4–(4-Methylpiperidine-1-carbonyl)-3,4-dihydroisoquinolin-1(2H)-one], the inhibition at 1 µM in data set [1] is 42.7 ± 0.9%.

For the compound `CN(Cc1ccccc1)C(=O)C1CNC(=O)c2ccccc21` (stereo not drawn) [Compound 3c, N-Benzyl-N-methyl-1-oxo-1,2,3,4-tetrahydroisoquinoline-4-carboxamide], the melting point lay in the range of 148 to 149 °C. Also, in data set [1], the inhibition at 1 µM was 18.6 ± 13.2%.

Regarding `O=C1NCC(C(=O)NCc2ccc(Cl)cc2)c2ccccc21` (stereo not drawn) [Compound 3d, N-(4-Chlorobenzyl)-1-oxo-1,2,3,4-tetrahydroisoquinoline-4-carboxamide], in data set [1], the inhibition at 1 µM was 7.4 ± 8.7%.

Turning to `O=C1NCC(C(=O)N2CCc3ccccc3C2)c2ccccc21` (stereo not drawn) [Compound 3e, 4–(1,2,3,4-Tetrahydroisoquinoline-2-carbonyl)-3,4-dihydroisoquinolin-1(2H)-one], the melting point lay in the range of 222 to 223 °C. For the same compound, the inhibition at 1 µM in data set [1] was 56 ± 7.5%.

Consider `CCN1CCN(C(=O)C2CNC(=O)c3ccccc32)CC1` (stereo not drawn) [Compound 3f, 4–(4-ethylpiperazine-1-carbonyl)-3,4-dihydroisoquinolin-1(2H)-one], for which the inhibition at 1 µM in data set [1] was 26.2 ± 9.7%.

In turn, `CCOC(=O)C1CCN(C(=O)C2CNC(=O)c3ccccc32)CC1` (stereo not drawn) [Compound 3g, Ethyl 1–(1-oxo-1,2,3,4-tetrahydroisoquinoline-4-carbonyl)piperidine-4-carboxylate] yielded a melting point of 120 to 121 °C. Besides, the inhibition at 1 µM in data set [1] worked out at 47.6 ± 4.1%.

`CN1CCN(C(=O)C2CNC(=O)c3ccccc32)CC1` (stereo not drawn) [Compound 3h, 4–(4-Methylpiperazine-1-carbonyl)-3,4-dihydroisoquinolin-1(2H)-one] returned a melting point of 163 to 164 °C. The inhibition at 1 µM in data set [1] was found to be 27.3 ± 6%.

As to `Cc1ccc(S(=O)(=O)N2CCN(C(=O)C3CNC(=O)c4ccccc43)CC2)cc1` (stereo not drawn) [Compound 3i, 4–(4-Tosylpiperazine-1-carbonyl)-3,4-dihydroisoquinolin-1(2H)-one], the melting point fell in the range of 228 to 229 °C. The inhibition at 1 µM in data set [1] was determined as 28.9 ± 5.5%.

Regarding `O=C1NCC(C(=O)N2CCOCC2)c2ccccc21` (stereo not drawn) [Compound 3j, 4-(Morpholine-4-carbonyl)-3,4-dihydroisoquinolin-1(2H)-one], the inhibition at 1 µM in data set [1] amounted to 57.6 ± 5.8%.

With `O=C1NCC(C(=O)N2CCC(Cc3ccccc3)CC2)c2ccccc21` (stereo not drawn) [Compound 3k, 4–(4-Benzylpiperidine-1-carbonyl)-3,4-dihydroisoquinolin-1(2H)-one], the melting point fell in the range of 191 to 192 °C. The inhibition at 1 µM in data set [1] was 45.1 ± 1.7%.

Regarding `O=C1NCC(C(=O)N2CCCC2)c2ccccc21` (stereo not drawn) [Compound 3m, 4-(Pyrrolidine-1-carbonyl)-3,4-dihydroisoquinolin-1(2H)-one], the inhibition at 1 µM in data set [1] came to 31.2 ± 3.4%.

In the case of `O=C1NCC(C(=O)N2CCCCCC2)c2ccccc21` (stereo not drawn) [Compound 3n, 4-(Azepane-1-carbonyl)-3,4-dihydroisoquinolin-1(2H)-one], the inhibition at 1 µM in data set [1] was found to be 35.4 ± 5.1%.

Regarding `O=C1NCC(C(=O)N2CCSCC2)c2ccccc21` (stereo not drawn) [Compound 3o, 4-(Thiomorpholine-4-carbonyl)-3,4-dihydroisoquinolin-1(2H)-one], the melting point fell in the range of 171 to 172 °C. The inhibition at 1 µM in data set [1] is 47.4 ± 3.7%.

`O=C1NCC(C(=O)NCc2ccc(F)cc2)c2ccccc21` (stereo not drawn) [Compound 3p, N-(4-Fluorobenzyl)-1-oxo-1,2,3,4-tetrahydroisoquinoline-4-carboxamide] had a melting point of 188 to 189 °C. Besides, the inhibition at 1 µM in data set [1] was found to be 27.2 ± 4.3%.

In turn, `COc1ccccc1N1CCN(C(=O)C2CNC(=O)c3ccccc32)CC1` (stereo not drawn) [Compound 3q, 4–(4-(2-Methoxyphenyl)piperazine-1-carbonyl)-3,4-dihydroisoquinolin-1(2H)-one] came in with a melting point of 155 to 156 °C. Also, the inhibition at 1 µM in data set [1] is 32.9 ± 2.4%.

As for `O=C1NCC(C(=O)N2CCC3(CCCCO3)CC2)c2ccccc21` (stereo not drawn) [Compound 3r, 4–(1-Oxa-9-azaspiro[5.5]undecane-9-carbonyl)-3,4-dihydroisoquinolin-1(2H)-one], the inhibition at 1 µM in data set [1] was determined as 28.5 ± 7.1%.

`O=C1NCC(C(=O)NCc2ccc(N3CCCCC3)cc2)c2ccccc21` (stereo not drawn) [Compound 3s, 1-oxo-N-(4-(piperidin-1-yl)benzyl)-1,2,3,4-tetrahydroisoquinoline-4-carboxamide] returned a melting point of 235 to 236 °C. Further, in data set [1], the inhibition at 1 µM amounted to 12.5 ± 8.5%.

As for `O=C1NCC(C(=O)N2CCN(Cc3ccc(F)cc3)CC2)c2ccccc21` (stereo not drawn) [Compound 3t, 4–(4–(4-Fluorobenzyl)piperazine-1-carbonyl)-3,4-dihydroisoquinolin-1(2H)-one], the inhibition at 1 µM in data set [1] turned out to be 43.3 ± 5.9%.

Turning to `O=C1NCC(C(=O)N2CCN(Cc3ccccc3F)CC2)c2ccccc21` (stereo not drawn) [Compound 3u, 4–(4-(2-Fluorobenzyl)piperazine-1-carbonyl)-3,4-dihydroisoquinolin-1(2H)-one], the inhibition at 1 µM in data set [1] was 31.9 ± 2%.

Consider `O=C1NCC(C(=O)N2CCC(N3CCOCC3)CC2)c2ccccc21` (stereo not drawn) [Compound 3v, 4–(4-Morpholinopiperidine-1-carbonyl)-3,4-dihydroisoquinolin-1(2H)-one], for which, in data set [1], the “PARP1 inhibitory potency in words” value is “significantly less potent; also recorded: inactive” and the inhibition at 1 µM came out at 33.2 ± 4.8%.

Turning to `O=C1NCC(C(=O)N2CCNCC2)c2ccccc21` (stereo not drawn) [Compound 3w, 4-(Piperazine-1-carbonyl)-3,4-dihydroisoquinolin-1(2H)-one], the inhibition at 1 µM in data set [1] was determined as 66.9 ± 1.5%.

On to `O=C1NCC(C(=O)N2CCN(C3CCCC3)CC2)c2ccccc21` (stereo not drawn) [Compound 3x, 4–(4-Cyclopentylpiperazine-1-carbonyl)-3,4-dihydroisoquinolin-1(2H)-one], for which the melting point was in the range of 177 to 178 °C. Further, the inhibition at 1 µM in data set [1] was 44.6 ± 2.9%.

Turning to `O=C1NCC(C(=O)N2CCN(C3CCCCC3)CC2)c2ccccc21` (stereo not drawn) [Compound 3y, 4–(4-Cyclohexylpiperazine-1-carbonyl)-3,4-dihydroisoquinolin-1(2H)-one], the melting point was in the range of 197 to 198 °C. Moreover, in data set [1], the “PARP1 inhibitory potency in words” value is “significantly less potent” and the inhibition at 1 µM amounted to 54.5 ± 4.6%. Also, the “PARP1 inhibitory potency in words” value in data set [1] (listed as 3 y) is “inactive”.

For the compound `O=C1NCC(C(=O)N2CCN(C3CCCCCC3)CC2)c2ccccc21` (stereo not drawn) [Compound 3z, 4–(4-Cycloheptylpiperazine-1-carbonyl)-3,4-dihydroisoquinolin-1(2H)-one], the melting point was 207 to 208 °C. Besides, in data set [1], the inhibition at 1 µM was determined as 45.2 ± 7.4%.

Turning to `O=C(c1c[nH]c(=O)c2ccccc12)N1CCC(N2CCCCC2)CC1` [Compound 11, 4-([1,4'-Bipiperidine]-1'-carbonyl)isoquinolin-1(2H)-one], the melting point lay within 171 to 174 °C. Further, in data set [1] (3,4-dehydro analog vs 3l / 3aa), the “fold lower potency compared to 3l or 3aa” value is on record as “approximately 10 fold”. The inhibition at 1 µM in data set [1] is 49.1 ± 2.6%.

The values are drawn from paper PMC8425678, “1-Oxo-3,4-dihydroisoquinoline-4-carboxamides as novel druglike inhibitors of poly(ADP-ribose) polymerase (PARP) with favourable ADME characteristics” (Journal of Enzyme Inhibition and Medicinal Chemistry, 2021).
